Results reported in ChEMBL document CHEMBL1147775, “N-(4-{[4-(1H-Benzoimidazol-2-yl)-arylamino]-methyl}-phenyl)-benzamide derivatives as small molecule heparanase inhibitors” (Bioorg Med Chem Lett, 2006).
Blank lines part the entries; values can stand above or below the molecule they belong to.

How the values were obtained:
[1] = Plasma concentration in mice after 1 hr of administration of 30 mg/kg, po; format: ADME, organism-based; set-up: dose 30 mg/kg, route oral; settings: mouse
[2] = Plasma concentration in mice after 4 hrs of administration of 30 mg/kg, po; format: ADME, organism-based; set-up: dose 30 mg/kg, route oral; settings: mouse
[3] = target: T1, Heparanase (Homo sapiens) (UniProt Q9Y251); experiment: Inhibitory activity against heparanase from human platelets at 0.83 uM
T1 sequence (whole entry): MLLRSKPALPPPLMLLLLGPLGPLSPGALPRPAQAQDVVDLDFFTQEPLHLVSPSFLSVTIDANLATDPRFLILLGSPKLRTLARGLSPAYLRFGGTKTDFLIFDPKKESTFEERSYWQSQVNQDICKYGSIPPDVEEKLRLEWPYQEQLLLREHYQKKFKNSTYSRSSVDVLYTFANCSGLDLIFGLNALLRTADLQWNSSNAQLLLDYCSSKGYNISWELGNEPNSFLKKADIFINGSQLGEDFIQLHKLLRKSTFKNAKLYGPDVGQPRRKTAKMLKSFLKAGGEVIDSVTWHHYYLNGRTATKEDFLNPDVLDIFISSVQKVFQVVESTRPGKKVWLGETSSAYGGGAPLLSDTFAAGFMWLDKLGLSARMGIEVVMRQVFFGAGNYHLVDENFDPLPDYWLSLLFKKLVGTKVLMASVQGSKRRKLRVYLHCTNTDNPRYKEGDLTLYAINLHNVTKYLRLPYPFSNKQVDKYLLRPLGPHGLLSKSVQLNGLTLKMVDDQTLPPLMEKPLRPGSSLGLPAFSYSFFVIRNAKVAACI

[4] = target: T1, Heparanase (Homo sapiens); experiment: Inhibitory activity against heparanase from human platelets at 25 uM
Heparanase = target: T2, Heparanase (Homo sapiens, UniProt Q9Y251); experiment: Inhibitory activity against heparanase from human platelets
T2 sequence (Q9Y251 whole entry): T1 sequence (whole entry)

[5] = Plasma concentration in mice after 1 hr of administration of 50 mg/kg, ip; format: ADME, organism-based; set-up: dose 50 mg/kg, route intraperitoneal; settings: mouse
[6] = Plasma concentration in mice after 4 hrs of administration of 50 mg/kg, ip; format: ADME, organism-based; set-up: dose 50 mg/kg, route intraperitoneal; settings: mouse

concentration at 1 h [1]: 3800 nM | concentration at 4 h [2]: 5500 nM
Structure (SMILES): COc1ccc(C(=O)Nc2ccc(CNc3ccc(-c4nc5ccccc5[nH]4)cn3)cc2)cc1Br

inhibition [3]: < 10%
Structure (SMILES): COc1ccc(C(=O)Nc2ccc(CNc3cccc(-c4nc5ccccc5[nH]4)c3)cc2)cc1Br

inhibition [3]: < 10%
Structure (SMILES): COc1ccc(C(=O)Nc2cccc(CNc3ccc(-c4nc5ccccc5[nH]4)cc3)c2)cc1Br

inhibition [4]: 73%
Structure (SMILES): CCOc1ccc(C(=O)Nc2ccc(-c3nc4cc(OC)ccc4[nH]3)cc2)cc1Br

IC50 (Heparanase): > 15 µM
Structure (SMILES): COc1ccc(C(=O)Nc2ccc(-c3nc4ccccc4[nH]3)cc2)cc1F

IC50 (Heparanase): > 15 µM
Structure (SMILES): COc1ccc(CC(=O)Nc2ccc(-c3nc4ccccc4[nH]3)cc2)cc1Br

IC50 (Heparanase): > 15 µM
Structure (SMILES): COc1ccc(S(=O)(=O)Nc2ccc(-c3nc4ccccc4[nH]3)cc2)cc1Br

concentration at 1 h [5]: 530 nM | concentration at 4 h [6]: 380 nM
Structure (SMILES): CCOc1ccc(C(=O)Nc2ccc(-c3nc4ccccc4[nH]3)cc2)cc1Br

IC50 (Heparanase): > 15 µM
Structure (SMILES): COc1ccc(CNc2ccc(-c3nc4ccccc4[nH]3)cc2)cc1Br

IC50 (Heparanase): > 15 µM
Structure (SMILES): COc1ccc(NC(=O)c2ccc(-c3nc4ccccc4[nH]3)cc2)cc1Br

IC50 (Heparanase): > 15 µM
Structure (SMILES): COc1ccc(C(=O)N(C)c2ccc(-c3nc4ccccc4[nH]3)cc2)cc1Br

inhibition [4]: 35%
Structure (SMILES): CCOc1ccc(C(=O)Nc2ccc(-c3nc4cc(OC)c(OC)cc4[nH]3)cc2)cc1Br

IC50 (Heparanase): > 15 µM
Structure (SMILES): COc1ccc(C(=O)Nc2ccc(-c3nc4ccccc4[nH]3)cc2)cc1Cl

concentration at 1 h [5]: 2240 nM | concentration at 4 h [6]: 670 nM
Structure (SMILES): COc1ccc(C(=O)Nc2ccc(-c3nc4ccccc4[nH]3)cc2)cc1Br

inhibition [3]: < 10%
Structure (SMILES): COc1ccc(C(=O)Nc2ccc(CNc3ccc(Cc4nc5ccccc5[nH]4)cc3)cc2)cc1Br

inhibition [4]: 30%
Structure (SMILES): CCOc1ccc(C(=O)Nc2ccc(-c3nc4cc(Cl)c(Cl)cc4[nH]3)cc2)cc1Br

inhibition [4]: 30%
Structure (SMILES): CCOc1ccc(C(=O)Nc2ccc(-c3nc4cc(C)c(Cl)cc4[nH]3)cc2)cc1Br
